Test results: PubChem BioAssay AID1919005 (Molecular Pharmacology Branch, DTP, NCI, 2023)
Where “and” joins values, the source holds several entries; their conditions need not be identical. Equal values may be shown once.

Test system: 855422-203-R-J1-PDC complex spheroid growth
Experiment: Anticancer human tumor 855422-203-R-J1-PDC patient-derived bladder carcinoma cell line growth inhibition [AhR]
Details: for viability, T/C: stronger effect = lower value
Procedure, shortened: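 Complex tumor spheroids co-cultured with HUVEC and human MSC stroma; AhR antagonists tested in combination with standard-of-care and investigational agents. Top concentration at or near clinical Cmax (else 10 microM), half-log dilutions; growth expressed as percent test/control.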

[1] = curve of first compound, second compound 0.1 µM
[2] = curve of first compound, second compound 0.316 µM
[3] = curve of first compound, second compound 1 µM
[4] = curve of first compound, second compound 3.16 µM
[5] = curve of first compound, second compound 10 µM
[6] = second compound 0.1 µM, first compound 0.00316 µM
[7] = second compound 0.1 µM, first compound 0.01 µM
[8] = second compound 0.1 µM, first compound 0.0316 µM
[9] = second compound 0.1 µM, first compound 0.1 µM
[10] = second compound 0.316 µM, first compound 0.00316 µM
[11] = second compound 0.316 µM, first compound 0.01 µM
[12] = second compound 0.316 µM, first compound 0.0316 µM
[13] = second compound 0.316 µM, first compound 0.1 µM
[14] = second compound 1 µM, first compound 0.00316 µM
[15] = second compound 1 µM, first compound 0.01 µM
[16] = second compound 1 µM, first compound 0.0316 µM
[17] = second compound 1 µM, first compound 0.1 µM
[18] = second compound 3.16 µM, first compound 0.00316 µM
[19] = second compound 3.16 µM, first compound 0.01 µM
[20] = second compound 3.16 µM, first compound 0.0316 µM
[21] = second compound 3.16 µM, first compound 0.1 µM
[22] = second compound 10 µM, first compound 0.00316 µM
[23] = second compound 10 µM, first compound 0.01 µM
[24] = second compound 10 µM, first compound 0.0316 µM
[25] = second compound 10 µM, first compound 0.1 µM
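Also: spheroids exposed to agents for seven days before readout.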
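For viability, T/C in this document: percent of DMSO vehicle control luminescence viability.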

Row | SMILES | IC50 [1] [nM] | IC50 [2] [nM] | IC50 [3] [nM] | IC50 [4] [nM] | IC50 [5] [nM] | viability, T/C [6] [%] | viability, T/C [7] [%] | viability, T/C [8] [%] | viability, T/C [9] [%] | viability, T/C [10] [%] | viability, T/C [11] [%] | viability, T/C [12] [%] | viability, T/C [13] [%] | viability, T/C [14] [%] | viability, T/C [15] [%] | viability, T/C [16] [%] | viability, T/C [17] [%] | viability, T/C [18] [%] | viability, T/C [19] [%] | viability, T/C [20] [%] | further results
1 | Nc1ncn(C2CC(O)C(CO)O2)c(=O)n1 (configuration not stated) + CC(CO)NC(=O)c1cc(-c2ccc(Cl)cc2)nn(-c2cnn(C)c2)c1=O | > 1000 | > 1000 | > 1000 | > 1000 | > 1000 | 92.6 | 92.2 | 85 | 85.3 | 94.6 | 90.3 | 93.3 | 83.6 | 103 | 96.6 | 95.7 | 87.4 | 95.3 | 93.9 | 90.2 | viability, T/C (second compound 0.1 µM, first compound 0.316 µM): 73%; viability, T/C (second compound 0.1 µM, first compound 1 µM): 76.3%; viability, T/C (second compound 0.316 µM, first compound 0.316 µM): 80.7%; viability, T/C (second compound 0.316 µM, first compound 1 µM): 78.2%; viability, T/C (second compound 1 µM, first compound 0.316 µM): 82.5%; viability, T/C (second compound 1 µM, first compound 1 µM): 80.2%; viability, T/C [21]: 79.8%; viability, T/C (second compound 3.16 µM, first compound 0.316 µM): 79.5%; viability, T/C (second compound 3.16 µM, first compound 1 µM): 80.9%; viability, T/C [22]: 96.5%; viability, T/C [23]: 88.7%; viability, T/C [24]: 88.3%; viability, T/C [25]: 91.5%; viability, T/C (second compound 10 µM, first compound 0.316 µM): 84.8%; viability, T/C (second compound 10 µM, first compound 1 µM): 76.3%
2 | CC1COCCN1c1cc(-c2ccnn2C)c2ccnc(-c3ccn[nH]3)c2n1 (configuration not stated) | – | – | – | – | – | – | – | – | – | – | – | – | – | – | – | – | – | – | – | – | viability, T/C (compound 0.00316 µM): 99.8% and 104% and 109%; viability, T/C (compound 0.01 µM): 100% and 108% and 107%; viability, T/C (compound 0.0316 µM): 106% and 101% and 96.2%; viability, T/C (compound 0.1 µM): 98.3% and 103% and 91.9%; viability, T/C (compound 0.316 µM): 36.1% and 71.9% and 59.7%; viability, T/C (compound 1 µM): 12.2% and 25.8% and 17.1%; IC50 (curve of compound): 244 nM and 546 nM and 421 nM
3 | Cn1ncnc1C1c2n[nH]c(=O)c3cc(F)cc(c23)NC1c1ccc(F)cc1 (configuration not stated) + CC(CO)NC(=O)c1cc(-c2ccc(Cl)cc2)nn(-c2cnn(C)c2)c1=O | > 100 | > 100 | > 100 | > 100 | > 100 | 99.3 | 92.4 | 105 | 84.9 | 98.6 | 107 | 100 | 89.3 | 96.2 | 109 | 99 | 107 | 102 | 103 | 105 | viability, T/C (second compound 0.1 µM, first compound 0.000316 µM): 93.4%; viability, T/C (second compound 0.1 µM, first compound 0.001 µM): 96.2%; viability, T/C (second compound 0.316 µM, first compound 0.000316 µM): 96.4%; viability, T/C (second compound 0.316 µM, first compound 0.001 µM): 104%; viability, T/C (second compound 1 µM, first compound 0.000316 µM): 109%; viability, T/C (second compound 1 µM, first compound 0.001 µM): 105%; viability, T/C (second compound 3.16 µM, first compound 0.000316 µM): 101%; viability, T/C (second compound 3.16 µM, first compound 0.001 µM): 107%; viability, T/C [21]: 110%; viability, T/C (second compound 10 µM, first compound 0.000316 µM): 105%; viability, T/C (second compound 10 µM, first compound 0.001 µM): 102%; viability, T/C [22]: 95.4%; viability, T/C [23]: 103%; viability, T/C [24]: 106%; viability, T/C [25]: 94%
